Counter-ions that a name gives are not always drawn. Like-named read-outs stand apart in the source and are kept apart here.
Test: Pharmacokinetic experiment in rats, LC/MS/MS
Assay type: in vivo
Conditions: male, rat, whole blood, SD rats; for AUC: read-out: Area under the curve (AUC, ng/mL.h); for half-life: read-out: Half life (T1/2, h) (converted); for bioavailability: p.o. 10 mg/kg vs i.v. 2 mg/kg, read-out: Bioavailability (F%); for Cmax: read-out: Blood concentration (Cmax, ng/mL)
Experimental: Taking SD rats as an example, the drug concentrations in the plasma of rats at different times after i.g. and i.v. administration of compounds of Examples 1, 5, 6, 8, 12, 13, 15, 18, 19, 22, 25, 27 and 29, respectively, were determined by the liquid chromatography-tandem mass spectrometry (LS/MS/MS) method, and the relevant pharmacokinetic parameters were calculated to evaluate the pharmacokinetic properties of example compounds of the present invention in rats.
Healthy adult SD rats, SPF grade, male, purchased from Sippe-Bk Lab Animal Co., Ltd., Shanghai, license number SCXK (Shanghai) 2018-0006, animal certificate number: 20180006006321.
A certain amount of compound was weighed, dissolved in 5% dimethyl sulfoxide (DMSO), subjected to vortex and sonication, added with 0.5% sodium carboxymethyl cellulose (CMC-Na), and sonicated, to prepare a homogeneous solution.
Before administration and 5 min, 15 min, 0.5 h, 1 h, 2 h, 4 h, 6 h, 8 h and 24 h after administration, orbital blood was collected, 0.2 milliliters (mL) of blood being collected each time, and placed in an anticoagulant tube, mixed well, and stored in a −20° C. refrigerator for later use.
The content of the compound in rat whole blood was determined by liquid chromatography-tandem mass spectrometry (LS/MS/MS).
The pharmacokinetic parameters of the compounds after administration were calculated using the non-compartmental model of WinNonLin5.3 software.

AUC (iv, i.v., 2 mg/kg) [ng·h/mL] | half-life (iv, i.v., 2 mg/kg) [h] | bioavailability (po) [%] | AUC (po, p.o. (i.g.), 10 mg/kg) [ng·h/mL] | Cmax (po, p.o. (i.g.), 10 mg/kg) [ng/mL] | SMILES
617 | 2.14 | 48 | 1480 | 405 | Cc1c(NC(=O)c2nc3c(n2C)CCN(CC(C)O)C3)cccc1-c1cccc(-c2nc3cc(CN4CC[C@@H](C(=O)O)C4)ncc3o2)c1C (stereo partly drawn) [Example 29, (R)-1-((2-(3′-(5-(2-hydroxypropyl)-1-methyl-4,5,6,7-tetrahydro-1H-imidazo[4,5-c]pyridine-2-carboxamido)-2,2′-dimethyl-[1,1′-biphenyl]-3-yl)oxazolo[5,4-c]pyridin-6-yl)methyl)pyrrolidine-3-carboxylic acid]
612 | 2.35 | 60 | 1840 | 435 | Cc1c(NC(=O)c2nc3c(s2)CN(C)CC3)cccc1-c1cncc(-c2nc3cc(CN4CC[C@@H](C(=O)O)C4)cc(C#N)c3o2)c1C [Example 25]
578 | 1.46 | 51 | 1470 | 488 | Cc1c(NC(=O)c2nc3c(s2)CN(C[C@H](C)O)CC3)cccc1-c1cccc(-c2nc3cc(CN4CC[C@@H](C(=O)O)C4)cnc3o2)c1C [Example 22, (R)-1-((2-(3′-(5-((S)-2-hydroxypropyl)-4,5,6,7-tetrahydrothiazolo[5,4-c]pyridine-2-carboxamido)-2,2′-dimethyl-[1,1′-biphenyl]-3-yl)oxazolo[5,4-b]pyridin-6-yl)methyl)pyrrolidine-3-carboxylic acid]

Continued, molecule first:

SMILES | AUC (iv, i.v., 2 mg/kg) [ng·h/mL] | half-life (iv, i.v., 2 mg/kg) [h] | bioavailability (po) [%] | AUC (po, p.o. (i.g.), 10 mg/kg) [ng·h/mL] | Cmax (po, p.o. (i.g.), 10 mg/kg) [ng/mL]
Cc1c(NC(=O)c2nc(CNCCO)cn2C)cccc1-c1cccc(NC(=O)c2ccc(CNCCO)cn2)c1Cl [Example 1, N-(2-chloro-3′-(4-(((2-hydroxyethyl)amino)methyl)-1-methyl-1H-imidazole-2-carboxamido)-2′-methyl-[1,1′-biphenyl]-3-yl)-5-(((2-hydroxyethyl)amino)methyl)picolinamide] | 596 | 2.05 | 56 | 1670 | 415
Cc1c(NC(=O)c2nc3c(s2)CN(C)CC3)cncc1-c1cccc(-c2nc3cc(CN4CC[C@@H](C(=O)O)C4)cc(Cl)c3o2)c1C [Example 8, (R)-1-((7-chloro-2-(2-methyl-3-(4-methyl-5-(5-methyl-4,5,6,7-tetrahydrothiazolo[5,4-c]pyridine-2-carboxamido)pyridin-3-yl)phenyl)benzo[d]oxazol-5-yl)methyl)pyrrolidine-3-carboxylic acid] | 601 | 1.56 | 55 | 1650 | 402
Cc1c(NC(=O)c2nc3c(s2)CNCC3)cccc1-c1cccc(-c2nc3cc(CN4CC[C@@H](C(=O)O)C4)cnc3o2)c1C [Example 18, (R)-1-((2-(2,2′-dimethyl-3′-(4,5,6,7-tetrahydrothiazolo[5,4-c]pyridine-2-carboxamido)-[1,1′-biphenyl]-3-yl)oxazolo[5,4-b]pyridin-6-yl)methyl)pyrrolidine-3-carboxylic acid trifluoroacetate] | 578 | 2.42 | 53 | 1530 | 365
Cc1c(NC(=O)c2nc3c(s2)CN(C)CC3)cncc1-c1cccc(NC(=O)c2nc3c(n2C)CCN(CC(C)O)C3)c1C (centres unmarked) [Example 6, N-(5-(3-(5-(2-hydroxypropyl)-1-methyl-4,5,6,7-tetrahydro-1H-imidazo[4,5-c]pyridine-2-carboxamido)-2-methylphenyl)-4-methylpyridin-3-yl)-5-methyl-4,5,6,7-tetrahydrothiazolo[5,4-c]pyridine-2-carboxamide] | 676 | 1.36 | 62 | 2100 | 389
